Results on 23 molecules are retold here after patent publication US20220380319A1 (Bial - R&D Investments, S.A., priority 2019, published 2022).

SMILES strings stand for the structures. In brackets after ≈: the same amount, converted by molar mass. Some results are limits rather than exact numbers.

The nature of data set [1]: Compound solubility in water.
A further data set concerns the target T1, acid ceramidase (Homo sapiens, UniProt Q13510).
T1 construct: Cell lysates overexpressing acid ceramidase were used as the enzyme source; expressed in transfected cells
T1 sequence (Q13510 22-395): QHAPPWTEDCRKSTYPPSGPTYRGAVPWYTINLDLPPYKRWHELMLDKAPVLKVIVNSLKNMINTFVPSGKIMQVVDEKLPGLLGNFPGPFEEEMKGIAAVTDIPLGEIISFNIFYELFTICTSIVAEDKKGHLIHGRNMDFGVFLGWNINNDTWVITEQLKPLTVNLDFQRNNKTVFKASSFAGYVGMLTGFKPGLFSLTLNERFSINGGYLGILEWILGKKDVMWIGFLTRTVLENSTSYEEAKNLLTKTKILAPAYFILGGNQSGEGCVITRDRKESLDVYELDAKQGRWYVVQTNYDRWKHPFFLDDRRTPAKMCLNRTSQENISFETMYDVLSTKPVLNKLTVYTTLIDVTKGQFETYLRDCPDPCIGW
The experiment in a line: Acid ceramidase inhibition, biochemical fluorescent assay with cell lysates overexpressing acid ceramidase, substrate Rbm14-12. To be noted: substrate Rbm14-12 6.3 μM, pH 4.5. An outline of the steps:
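Lysate of cells overexpressing acid ceramidase (10 μg protein) preincubated with compound dose series 1 hr at RT in 25 mM NaAC, 100 mM NaCl, pH 4.5, then reacted 1 hr with 6.3 μM Rbm14-12. Stopped with NaIO4/glycine buffer pH 10.6, fluorescence ex360/em446; IC50 by four-parameter fit.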

The molecule `CN1CC2CCC(C1)N2c1cccc2c1ncn2C(=O)NCCCc1ccccc1` [Example 241, 4-(3-Methyl-3,8-diazabicyclo[3.2.1]octan-8-yl)-N-(3-phenylpropyl)-1H-benzo[d]imidazole-1-carboxamide] displayed a solubility in data set [1] of 25 µg/mL (≈ 62 µM). In addition, the IC50 against acid ceramidase was less than 200 nM.

As to `CN1C2CC1CN(c1cccc3c1ncn3C(=O)NCCCc1ccccc1)C2` [Example 243, 4-(6-Methyl-3,6-diazabicyclo[3.1.1]heptan-3-yl)-N-(3-phenylpropyl)-1H-benzo[d]imidazole-1-carboxamide], the concentration in solution in data set [1] (solubility) came to 28 µg/mL (≈ 71.9 µM). At acid ceramidase, this molecule returned an IC50 of less than 200 nM.

In data set [1], `CN1C[C@@H]2C[C@H]1CN2c1cccc2c1ncn2C(=O)NCCCc1ccccc1` [Example 244, 4-((1S,4S)-5-Methyl-2,5-diazabicyclo[2.2.1]heptan-2-yl)-N-(3-phenylpropyl)-1H-benzo[d]imidazole-1-carboxamide] gave a solubility of 30 µg/mL (≈ 77 µM). Also, the IC50 against acid ceramidase was less than 200 nM.

In turn, `CN1CC2CC(C1)N2c1cccc2c1ncn2C(=O)NCCCc1ccccc1` [Example 245, 4-(3-Methyl-3,6-diazabicyclo[3.1.1]heptan-6-yl)-N-(3-phenylpropyl)-1H-benzo[d]imidazole-1-carboxamide] came in with a solubility in data set [1] of 32 µg/mL (≈ 82.2 µM). Moreover, on acid ceramidase, the concentration for half-maximal inhibition (IC50) is less than 200 nM.

Take `CN1C[C@H]2C[C@@H]1CN2c1cccc2c1ncn2C(=O)NCCCc1ccccc1` [Example 246, 4-((1R,4R)-5-Methyl-2,5-diazabicyclo[2.2.1]heptan-2-yl)-N-(3-phenylpropyl)-1H-benzo[d]imidazole-1-carboxamide]: the solubility in data set [1] is 29 µg/mL (≈ 74.5 µM). Besides, the IC50 at acid ceramidase is less than 200 nM.

Turning to `CN1CC2CCC1CN2c1cccc2c1ncn2C(=O)NCCCc1ccccc1` (stereo not shown) [Example 247, 4-(5-Methyl-2,5-diazabicyclo[2.2.2]octan-2-yl)-N-(3-phenylpropyl)-1H-benzo[d]imidazole-1-carboxamide], the solubility in data set [1] stood at 28 µg/mL (≈ 69.4 µM). This molecule showed a 50% inhibitory concentration (IC50) at acid ceramidase of less than 200 nM.

On to `O=C(NCCCc1ccccc1)n1cnc2c(N3CCC(F)(F)CC3)cccc21` [Example 248, 4-(4,4-Difluoropiperidin-1-yl)-N-(3-phenylpropyl)-1H-benzo[d]imidazole-1-carboxamide], for which, in data set [1], the concentration in solution (solubility) came to 1 µg/mL (≈ 2.51 µM). For the same molecule, the IC50 at acid ceramidase is less than 200 nM.

As for `CCN1CCN(c2cccc3c2ncn3C(=O)NCCCc2ccccc2)CC1` [Example 249, 4-(4-Ethylpiperazin-1-yl)-N-(3-phenylpropyl)-1H-benzo[d]imidazole-1-carboxamide], in data set [1], the concentration in solution (solubility) came to 12 µg/mL (≈ 30.6 µM). For the same molecule, the half-maximal inhibitory concentration (IC50) at acid ceramidase was less than 200 nM.

As for `CN1CCN(c2cccc3c2ncn3C(=O)NCCCc2ccccc2)CC12CC2` [Example 250, 4-(4-Methyl-4,7-diazaspiro[2.5]octan-7-yl)-N-(3-phenylpropyl)-1H-benzo[d]imidazole-1-carboxamide], in data set [1], the concentration in solution (solubility) came to 23 µg/mL (≈ 57 µM). Further, the IC50 against acid ceramidase is less than 200 nM.

`CN1CC(N2CCN(c3cccc4c3ncn4C(=O)NCCCc3ccccc3)CC2)C1` [Example 251, 4-(4-(1-Methylazetidin-3-yl)piperazin-1-yl)-N-(3-phenylpropyl)-1H-benzo[d]imidazole-1-carboxamide]: in data set [1], the concentration in solution (solubility) came to 35 µg/mL (≈ 80.9 µM). Further, the half-inhibitory concentration (IC50) at acid ceramidase is less than 200 nM.

Molecule `O=C1CN(c2cccc3c2ncn3C(=O)NCCCc2ccccc2)CCN1C1CC1` [Example 252, 4-(4-Cyclopropyl-3-oxopiperazin-1-yl)-N-(3-phenylpropyl)-1H-benzo[d]imidazole-1-carboxamide] showed a solubility in data set [1] of 1 µg/mL (≈ 2.4 µM). In addition, the IC50 on acid ceramidase was less than 200 nM.

`C[C@@H](CCNC(=O)n1cnc2c(N3CCN(C)CC3)cccc21)c1ccccc1` [Example 253a, (S)-4-(4-Methylpiperazin-1-yl)-N-(3-phenylbutyl)-1H-benzo[d]imidazole-1-carboxamide] came in with a solubility in data set [1] of 26 µg/mL (≈ 66.4 µM). The same molecule displayed a half-inhibitory concentration (IC50) on acid ceramidase of less than 200 nM.

In turn, `C[C@H](CCNC(=O)n1cnc2c(N3CCN(C)CC3)cccc21)c1ccccc1` [Example 253b, (R)-4-(4-methylpiperazin-1-yl)-N-(3-phenylbutyl)-1H-benzo[d]imidazole-1-carboxamide] yielded a solubility in data set [1] of 27 µg/mL (≈ 69 µM). The half-inhibitory concentration (IC50) on acid ceramidase is less than 200 nM.

On to `CN1CCN(c2cccc3c2ncn3C(=O)NCCCC2(C(F)(F)F)CC2)CC1` [Example 254, 4-(4-Methylpiperazin-1-yl)-N-(3-(1-(trifluoromethyl)cyclopropyl)propyl)-1H-benzo[d]imidazole-1-carboxamide], for which the concentration in solution in data set [1] (solubility) was 20 µg/mL (≈ 48.8 µM). This molecule returned an IC50 against acid ceramidase of less than 200 nM.

`CN1CCN(c2cccc3c2ncn3C(=O)NCCCC(F)(F)F)CC1` [Example 255, 4-(4-Methylpiperazin-1-yl)-N-(4,4,4-trifluorobutyl)-1H-benzo[d]imidazole-1-carboxamide] showed a solubility in data set [1] of 35 µg/mL (≈ 94.8 µM). Moreover, at acid ceramidase, the IC50 fell in the range of 200 to 1000 nM.

Take `CN1CCN(c2cccc3c2ncn3C(=O)NCC2CCC(F)(F)CC2)CC1` [Example 256, N-((4,4-Difluorocyclohexyl)methyl)-4-(4-methylpiperazin-1-yl)-1H-benzo[d]imidazole-1-carboxamide]: the solubility in data set [1] amounted to 24 µg/mL (≈ 61.3 µM). Further, the half-maximal inhibitory concentration (IC50) at acid ceramidase lay within 200 to 1000 nM.

In data set [1], `CN1CCN(c2cccc3c2ncn3C(=O)NCCOc2ccccc2)CC1` [Example 257, 4-(4-Methylpiperazin-1-yl)-N-(2-phenoxyethyl)-1H-benzo[d]imidazole-1-carboxamide] gave a solubility of 19 µg/mL (≈ 50.1 µM). In addition, at acid ceramidase, the IC50 was less than 200 nM.

As to `CN1CCN(c2cccc3c2ncn3C(=O)NCCC2CCC(F)(F)C2)CC1` (stereo not shown) [Example 258, N-(2-(3,3-Difluorocyclopentyl)ethyl)-4-(4-methylpiperazin-1-yl)-1H-benzo[d]imidazole-1-carboxamide], the solubility in data set [1] stood at 34 µg/mL (≈ 86.9 µM). The molecule further had a concentration for half-maximal inhibition (IC50) at acid ceramidase of less than 200 nM.

`CN1CCN(c2cccc3c2ncn3C(=O)NCCC2CCCC2(F)F)CC1` (stereo not shown) [Example 259, N-(2-(2,2-Difluorocyclopentyl)ethyl)-4-(4-methylpiperazin-1-yl)-1H-benzo[d]imidazole-1-carboxamide] returned a solubility in data set [1] of 21 µg/mL (≈ 53.6 µM). The same molecule came in with an IC50 on acid ceramidase of 200 to 1000 nM.

In data set [1], `CN1CCN(c2cccc3c2ncn3C(=O)NCCCC2CC(F)(F)C2)CC1` [Example 260, N-(3-(3,3-Difluorocyclobutyl)propyl)-4-(4-methylpiperazin-1-yl)-1H-benzo[d]imidazole-1-carboxamide] registered a solubility of 31 µg/mL (≈ 79.2 µM). This molecule also had an IC50 at acid ceramidase of 200 to 1000 nM.

Turning to `CCN1CCC(c2cccc3c2ncn3C(=O)NCCCc2ccccc2)C1` (stereo not shown) [Example 261, 4-(1-Ethylpyrrolidin-3-yl)-N-(3-phenylpropyl)-1H-benzo[d]imidazole-1-carboxamide], the solubility in data set [1] came to 26 µg/mL (≈ 69.1 µM). For the same molecule, the half-maximal inhibitory concentration (IC50) against acid ceramidase is less than 200 nM.

For the molecule `O=C(NCCCc1ccccc1)n1cnc2c(CCCN3CCC3)cccc21` [Example 262, 4-(3-(Azetidin-1-yl)propyl)-N-(3-phenylpropyl)-1H-benzo[d]imidazole-1-carboxamide], in data set [1], the solubility is 21 µg/mL (≈ 55.8 µM). For the same molecule, on acid ceramidase, the 50% inhibitory concentration (IC50) was less than 200 nM.

For `CC1(N)CCN(c2cccc3c2ncn3C(=O)NCCCc2ccccc2)CC1` [Example 263, 4-(4-Amino-4-methylpiperidin-1-yl)-N-(3-phenylpropyl)-1H-benzo[d]imidazole-1-carboxamide], the solubility in data set [1] was 25 µg/mL (≈ 63.9 µM). At acid ceramidase, this molecule showed an IC50 of less than 200 nM.
